Source: ChEMBL document CHEMBL1131721, “Adenosine-5'-carboxylic acid peptidyl derivatives as inhibitors of protein kinases” (Bioorg Med Chem Lett, 1999)
Residues, ends and D or L forms follow the SMILES beside them. *: point of attachment. X1 = Nc1ncnc2c1ncn2C1O[C@H](C(=O)*)[C@@H](O)[C@H]1O; Ahx = NCCCCCC(=O)O

Tests used:
CaM kinase I alpha = target: T1, CaM kinase I alpha (Zea mays, UniProt O04417); test: Inhibition of Calcium-dependent protein kinase 1 (CDPK-1) from maize seedlings
T1 sequence (O04417 whole entry): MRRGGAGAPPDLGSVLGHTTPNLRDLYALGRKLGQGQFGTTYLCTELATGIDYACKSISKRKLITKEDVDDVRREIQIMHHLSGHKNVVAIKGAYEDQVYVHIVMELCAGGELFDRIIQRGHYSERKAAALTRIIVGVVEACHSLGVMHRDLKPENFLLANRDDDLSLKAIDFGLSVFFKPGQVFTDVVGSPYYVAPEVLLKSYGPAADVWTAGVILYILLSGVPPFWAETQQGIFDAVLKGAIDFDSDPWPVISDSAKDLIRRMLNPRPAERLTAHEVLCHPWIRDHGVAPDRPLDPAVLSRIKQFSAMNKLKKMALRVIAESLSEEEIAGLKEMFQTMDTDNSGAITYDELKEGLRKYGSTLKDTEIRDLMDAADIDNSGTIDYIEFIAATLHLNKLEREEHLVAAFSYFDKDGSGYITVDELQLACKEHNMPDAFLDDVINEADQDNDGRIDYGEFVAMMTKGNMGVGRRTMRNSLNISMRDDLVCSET

[1] = Inhibition of murine Protein kinase A; design: species or system Mus musculus
[2] = Inhibition of Casein kinase 1 from rat liver
[3] = Inhibition of Casein kinase 2 from rat liver at 100 uM (No inhibition)
[4] = Inhibition of Casein kinase 2 from rat liver
[5] = Inhibition of murine Protein kinase A at 100 uM (No inhibition); design: species or system Mus musculus

SMILES | IC50 (CaM kinase I alpha) | IC50 [1] | IC50 [2] | IC50 [3] | IC50 ([4]; read-out: IC50) | IC50 [4] | IC50 [5]
N=C(N)NCCC[C@H](NC(=O)[C@H](CCCNC(=N)N)NC(=O)[C@H](CCCNC(=N)N)NC(=O)[C@H](CCCNC(=N)N)NC(=O)CCCCCNC(=O)[C@H]1OC(n2cnc3c(N)ncnc32)[C@H](O)[C@@H]1O)C(=O)O (stereo partly specified) ({X1-Ahx}-RRRR-OH) | 52 µM | – | – | – | – | – | –
N=C(N)NCCC[C@H](NC(=O)[C@H](CCCNC(=N)N)NC(=O)[C@H](CCCNC(=N)N)NC(=O)[C@H](CCCNC(=N)N)NC(=O)[C@H](CCCNC(=N)N)NC(=O)[C@H](CCCNC(=N)N)NC(=O)CCCCCCCCCCNC(=O)[C@H]1OC(n2cnc3c(N)ncnc32)[C@H](O)[C@@H]1O)C(=O)O (stereo partly specified) | 4.9 µM | 0.33 µM | > 30 µM | Not Active | – | – | –
N=C(N)NCCC[C@H](NC(=O)[C@H](CCCNC(=N)N)NC(=O)[C@H](CCCNC(=N)N)NC(=O)[C@H](CCCNC(=N)N)NC(=O)[C@H](CCCNC(=N)N)NC(=O)[C@H](CCCNC(=N)N)NC(=O)CCCCCNC(=O)[C@H]1OC(n2cnc3c(N)ncnc32)[C@H](O)[C@@H]1O)C(=O)O (stereo partly specified) | 1.2 µM | 0.12 µM | > 30 µM | – | > 30 µM | – | –
N=C(N)NCCC[C@H](NC(=O)[C@H](CCCNC(=N)N)NC(=O)[C@H](CCCNC(=N)N)NC(=O)[C@H](CCCNC(=N)N)NC(=O)[C@H](CCCNC(=N)N)NC(=O)[C@H](CCCNC(=N)N)NC(=O)CCNC(=O)[C@H]1OC(n2cnc3c(N)ncnc32)[C@H](O)[C@@H]1O)C(=O)O (stereo partly specified) | 38 µM | 1.8 µM | > 30 µM | – | – | Not Active | –
NC(N)=NCCC[C@@H](N)C(=O)N[C@H](CCCN=C(N)N)C(=O)N[C@H](CCCN=C(N)N)C(=O)N[C@H](CCCN=C(N)N)C(=O)N[C@H](CCCN=C(N)N)C(=O)N[C@H](CCCN=C(N)N)C(=O)O | > 50 µM | – | > 100 µM | Not Active | – | – | Not Active
CC(=O)NCCCCCC(=O)N[C@@H](CCCN=C(N)N)C(=O)N[C@@H](CCCNC(=N)N)C(=O)N[C@@H](CCCNC(=N)N)C(=O)N[C@@H](CCCNC(=N)N)C(=O)N[C@@H](CCCNC(=N)N)C(=O)N[C@@H](CCCN=C(N)N)C(=O)O (stereo in doubt) | > 50 µM | > 100 µM | > 100 µM | Not Active | – | – | –
N=C(N)NCCC[C@H](NC(=O)[C@H](CCCNC(=N)N)NC(=O)[C@H](CCCNC(=N)N)NC(=O)[C@H](CCCNC(=N)N)NC(=O)[C@H](CCCNC(=N)N)NC(=O)[C@H](CCCNC(=N)N)NC(=O)CCCCCCCNC(=O)[C@H]1OC(n2cnc3c(N)ncnc32)[C@H](O)[C@@H]1O)C(=O)O (stereo partly specified) | 3.2 µM | 0.24 µM | > 30 µM | – | > 30 µM | – | –
N=C(N)NCCC[C@@H](NC(=O)[C@@H](CCCNC(=N)N)NC(=O)CCCCCNC(=O)[C@H]1OC(n2cnc3c(N)ncnc32)[C@H](O)[C@@H]1O)C(=O)O (stereo partly specified) | 35 µM | – | – | – | – | – | –
C[C@H](NC(=O)C[C@H](NC(=O)C[C@H](NC(=O)[C@H]1O[C@@H](n2cnc3c(N)ncnc32)[C@H](O)[C@@H]1O)C(=O)O)C(=O)O)C(=O)N[C@@H](CCCNC(=N)N)C(=O)N[C@@H](CCCNC(=N)N)C(=O)N[C@@H](CCCNC(=N)N)C(=O)N[C@@H](CCCNC(=N)N)C(=O)N[C@@H](CCCNC(=N)N)C(=O)N[C@@H](CCCNC(=N)N)C(=O)O | > 50 µM | 11.1 µM | > 30 µM | – | > 30 µM | – | –
N=C(N)NCCC[C@H](NC(=O)[C@H](CCCNC(=N)N)NC(=O)[C@H](CCCNC(=N)N)NC(=O)[C@H](CCCNC(=N)N)NC(=O)[C@H](CCCNC(=N)N)NC(=O)[C@H](CCCNC(=N)N)NC(=O)CNC(=O)[C@H]1OC(n2cnc3c(N)ncnc32)[C@H](O)[C@@H]1O)C(=O)O (stereo partly specified) | 67 µM | 4 µM | > 30 µM | – | > 30 µM | – | –
Nc1ncnc2c1ncn2[C@@H]1O[C@H](CO)[C@@H](O)[C@H]1O [ADENOSINE] | 116 µM | 141 µM | 126 µM | – | > 300 µM | – | –
N=C(N)NCCC[C@H](NC(=O)[C@H](CCCNC(=N)N)NC(=O)[C@H](CCCNC(=N)N)NC(=O)[C@H](CCCNC(=N)N)NC(=O)[C@H](CCCNC(=N)N)NC(=O)[C@H](CCCNC(=N)N)NC(=O)CCCNC(=O)[C@H]1OC(n2cnc3c(N)ncnc32)[C@H](O)[C@@H]1O)C(=O)O (stereo partly specified) | 19 µM | 1.3 µM | > 30 µM | – | > 30 µM | – | –
C[C@H](NC(=O)CCNC(=O)CCNC(=O)[C@H]1OC(n2cnc3c(N)ncnc32)[C@H](O)[C@@H]1O)C(=O)N[C@@H](CCCNC(=N)N)C(=O)N[C@@H](CCCNC(=N)N)C(=O)N[C@@H](CCCNC(=N)N)C(=O)N[C@@H](CCCNC(=N)N)C(=O)N[C@@H](CCCNC(=N)N)C(=O)N[C@@H](CCCNC(=N)N)C(=O)O (stereo partly specified) | 16 µM | 4.3 µM | > 100 µM | – | – | ≥ 30 µM | –
